ChEMBL document CHEMBL1150980, “Potent inhibitors of neutral endopeptidase. 2-Biphenyl- methylglutaric acid amide derivatives” (Bioorg Med Chem Lett, 1996)

Assays:
Neprilysin [1] = biological target: T1, Neprilysin (Rattus norvegicus, UniProt P07861); test: In vitro inhibition of neutral endopeptidase from rat kidney.
T1 sequence (P07861 whole entry): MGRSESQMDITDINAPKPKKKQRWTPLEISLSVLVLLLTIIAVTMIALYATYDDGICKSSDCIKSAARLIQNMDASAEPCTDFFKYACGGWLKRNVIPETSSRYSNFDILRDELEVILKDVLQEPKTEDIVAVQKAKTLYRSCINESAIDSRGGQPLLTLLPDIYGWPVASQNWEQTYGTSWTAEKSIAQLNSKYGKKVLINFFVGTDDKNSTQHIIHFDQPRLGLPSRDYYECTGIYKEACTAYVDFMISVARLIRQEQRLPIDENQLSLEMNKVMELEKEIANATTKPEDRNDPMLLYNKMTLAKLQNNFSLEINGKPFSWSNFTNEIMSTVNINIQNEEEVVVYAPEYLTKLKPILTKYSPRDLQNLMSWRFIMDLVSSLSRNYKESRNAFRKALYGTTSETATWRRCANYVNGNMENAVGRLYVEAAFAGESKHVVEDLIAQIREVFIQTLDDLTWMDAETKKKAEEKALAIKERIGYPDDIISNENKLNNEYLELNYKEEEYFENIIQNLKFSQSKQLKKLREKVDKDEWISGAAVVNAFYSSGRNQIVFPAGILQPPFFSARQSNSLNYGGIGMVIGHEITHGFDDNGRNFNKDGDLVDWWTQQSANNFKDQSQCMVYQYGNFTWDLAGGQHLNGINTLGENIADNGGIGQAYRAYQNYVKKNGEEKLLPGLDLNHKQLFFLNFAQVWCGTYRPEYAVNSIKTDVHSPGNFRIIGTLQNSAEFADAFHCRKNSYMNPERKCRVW

Neprilysin [2] = biological target: T1, Neprilysin; test: In vitro inhibitory activity against neutral endopeptidase (NEP) from rat kidney

IC50 (Neprilysin [1]) | IC50 (Neprilysin [2]) | SMILES
> 1000 nM |  | O=C(O)CNC(=O)C(Cc1ccccc1)CC(COc1ccccc1)C(=O)O (single isomer, unassigned; isomer A)
2.8 nM |  | CC(NC(=O)[C@H](Cc1ccc(-c2ccccc2)cc1)CC(COc1ccccc1)C(=O)O)C(=O)O (stereo in doubt)
> 1000 nM |  | O=C(O)C(COc1ccccc1)C[C@@H](Cc1ccc(-c2ccccc2)cc1)C(=O)N1CCCC1C(=O)O (stereo in doubt)
> 1000 nM |  | CC(CC(Cc1ncc(-c2ccccc2)cn1)C(=O)NCC(=O)O)C(=O)O (stereo not given)
> 1000 nM |  | CCC/C=C(/C[C@@H](Cc1ccc(-n2cccn2)cc1)C(=O)NCC(=O)O)C(=O)O
8.7 nM |  | C[C@@H](NC(=O)[C@H](Cc1ccc(-c2ccccc2)cc1)CC(COc1ccccc1)C(=O)O)C(=O)O (stereo in doubt; form 2)
> 1000 nM |  | O=C(O)CNC(=O)[C@@H](C[C@H](COc1ccccc1)C(=O)O)Oc1ccc(-c2ccccc2)cc1
407 nM |  | O=C(O)CNC(=O)C(Cc1ccccc1)CC(COc1ccccc1)C(=O)O (single isomer, unassigned; isomer B)
2.3 nM |  | O=C(O)CC[C@@H](Cc1ccc(-c2ccccc2)cc1)C(=O)NCC(=O)O
20 nM |  | CC(NC(=O)[C@H](Cc1ccc(-c2ccccc2)cc1)CC(COc1ccccc1)C(=O)O)C(=O)O (mixture of isomers)
5.9 nM |  | O=C(O)CNC(=O)[C@H](Cc1ccc(-c2ccccc2)cc1)C[C@H](COc1ccccc1)C(=O)O
 | 5.9 nM | O=C(O)CNC(=O)[C@H](Cc1ccc(-c2ccccc2)cc1)CC(COc1ccccc1)C(=O)O (stereo not given in full)
> 1000 nM |  | COCCOCC(CC(Cc1ccccc1)C(=O)NCC(=O)O)C(=O)O (single isomer, unassigned; isomer A)
13 nM |  | C[C@@H](NC(=O)[C@H](Cc1ccc(-c2ccccc2)cc1)CC(COc1ccccc1)C(=O)O)C(=O)O (stereo in doubt; form 1)
366 nM |  | CCCC[C@H](C[C@H](Cc1ccc(-n2cccn2)cc1)C(=O)NCC(=O)O)C(=O)O
> 1000 nM |  | O=C(O)C(COc1ccccc1)C[C@@H](Cc1ccc(-c2ccccc2)cc1)C(=O)N1CCCC1C(=O)O (single isomer, unassigned; isomer B)
3.2 nM |  | O=C(O)CNC(=O)[C@H](Cc1ccc(-c2ccccc2)cc1)CC(COc1ccccc1)C(=O)O (single isomer, unassigned; isomer A)
945 nM |  | COCCOCC(CC(Cc1ccccc1)C(=O)NCC(=O)O)C(=O)O (single isomer, unassigned; isomer B)
3.2 nM |  | O=C(O)CNC(=O)[C@H](Cc1ccc(-c2ccccc2)cc1)C[C@@H](COc1ccccc1)C(=O)O
101 nM |  | CSCCC(NC(=O)[C@H](Cc1ccc(-c2ccccc2)cc1)CC(COc1ccccc1)C(=O)O)C(=O)O (mixture of isomers)
